Data on two compounds can be found in publication PMC5228037, “Discovery and Mechanistic Characterization of Selective Inhibitors of H2S-producing Enzyme: 3-Mercaptopyruvate Sulfurtransferase (3MST) Targeting Active-site Cysteine Persulfide” (Scientific Reports, 2017).

pKd: −log10 of the molar value. “Also recorded” adds a separate entry of the source.

The target in one assay is T1, persulfurated 3MST (Mus musculus, UniProt Q99J99).
T1 construct: The recombinant full-length wild-type mouse 3MST; made in house; host or cells: E. coli JM109 (DE3)
T1 sequence (Q99J99 1-297): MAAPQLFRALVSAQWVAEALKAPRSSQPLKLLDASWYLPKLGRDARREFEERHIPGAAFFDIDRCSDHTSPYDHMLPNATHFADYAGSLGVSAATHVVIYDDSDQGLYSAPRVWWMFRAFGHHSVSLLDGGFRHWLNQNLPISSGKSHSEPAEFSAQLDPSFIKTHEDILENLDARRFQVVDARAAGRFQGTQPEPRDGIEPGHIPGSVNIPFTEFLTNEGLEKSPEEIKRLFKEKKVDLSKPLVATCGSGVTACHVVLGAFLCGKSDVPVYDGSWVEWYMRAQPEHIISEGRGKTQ
The assay is described as follows: ITC analysis with persulfurated 3MST. Format: binding. The following applies: 25 °C; for ΔH (ITC): persulfurated 3MST; for pKd: persulfurated (3MP-treated) 3MST, pH 9, read-out: Dissociation constant Kd (ITC). As for the experimental part: (§1) The recombinant full-length wild-type mouse 3MST and mutant m3MST (C65S/C255S/C264S) were expressed as an N-terminal His-tagged protein ([…]-3MST) in E. coli JM109 (DE3). The pET44a(+) vector (Novagen) was used as an expression vector. Cells were grown at 37 °C in LB broth (Miller) or 2 × YT broth containing 0.1 g/L ampicillin to OD600 about 0.5, and then protein expression was induced by adding IPTG (final conc. 0.5 mM (LB), 1 mM (2 × YT)). Cells were cultured overnight at 18–20 °C with shaking and harvested at 4 °C by centrifugation at 9,000 rpm for 5 min. Harvested cells were resuspended in lysis buffer containing 0.1 M HEPES-NaOH pH 8, 0.5 M NaCl, 0% or 10% glycerol, 0.5 mM TCEP, 1 mM PMSF, and 1% EtOH, and disrupted by sonication. Cell lysis solutions were centrifuged at 20,000 rpm for 20 min. […] The proteins were further purified on HisTrap HP (GE Healthcare) by increasing the imidazole concentration in buffer containing 0.02 M HEPES pH 8, 0.15 M NaCl, 10% glycerol, and 0.05 mM TCEP until proteins were eluted. Then the His-tag was removed by GST-fusion HRV 3 C protease digestion. The proteins were further purified by anion exchange chromatography on a HiTrap Q HP (GE Healthcare) by increasing the NaCl concentration in buffer containing 0.02 M HEPES pH 8, 10% glycerol, 0.5 mM TCEP until proteins were eluted, and then by gel filtration chromatography on Superdex 75 prep grade using buffer containing 0.02 M HEPES pH 7.5, 0.3 M NaCl, 0.5 mM TCEP. Wild-type 3MST was used in ITC analysis and mutant 3MST was used for crystallization.
Persulfurated 3MST was prepared as follows: 3MST-3MP solution (5 μM 3MST, 25 μM 3MP, 20 μM TCEP, 0.02 M glycine-NaOH pH9, 0.1 M NaCl) was incubated for 2 hr at room temperature. To prevent buffer mismatch and to remove unreacted 3MP and reaction product (pyruvate), the reaction solution was exchanged to ITC measurement solution (0.02 M glycine-NaOH pH 9, 0.1 M NaCl, 5% DMSO) using an Amicon Ultra (10 K) (Millipore) or Vivaspin (10 K) (Sartorius). Non-persulfurated 3MST solution was also prepared by buffer exchange. Both inhibitors were dissolved in the ITC measurement solution. Inhibitor solution (0.5 mM compound 1 or 0.25 mM compound 3) were titrated into a protein solution (0.05 mM 3MST) at 25 °C using a MicroCal iTC200 (GE Healthcare). The first injection of 0.4 μL was followed by 18 injections of 2 μL with 150 s between each injection. Each experiment was repeated three times (n = 3). For data analysis, the first injection peak was removed. Data analyses and curve fitting to a single-site binding model were performed by Origin7 SR4 software (OriginLab).
On the technique in general: Isothermal titration calorimetry measures the heat released or taken up as one component is titrated into another.

The next assay concerns the target T2, non-persulfurated 3MST (Mus musculus, UniProt Q99J99).
T2 construct: The recombinant full-length wild-type mouse 3MST; made in house; host or cells: E. coli JM109 (DE3)
T2 sequence (Q99J99 1-297): T1 sequence (Q99J99 1-297)
Kind of assay: ITC analysis with non-persulfurated 3MST. Format: binding. The following applies: 3MP-untreated 3MST. As for the experimental part:
as §1, with “The proteins were further purified by anion exchange chromatography on a HiTrap Q HP (GE Healthcare) by increasing the NaCl concentration in buffer containing 0.02 M HEPES pH 8, 10% glycerol, 0.5 mM TCEP until proteins were eluted, and then by gel filtration chromatography on Superdex 75 prep grade using buffer containing 0.02 M HEPES pH 7.5, 0.3 M NaCl, 0.5 mM TCEP. Wild-type 3MST was used in ITC analysis and mutant 3MST was used for crystallization.” left out

For orientation: pKd means the Kd on a negative log10 scale, so that one unit is a factor of ten. For the compound `NC(=O)c1ccsc1NC(=O)CSc1nc2ccccc2c(=O)[nH]1` [compound 1], on persulfurated 3MST, the “ΔH (ITC)” value is -9.37 kcal/mol and the pKd is 5.52. The “Binding to non-persulfurated 3MST (ITC heat release)” value on non-persulfurated 3MST was “no heat release; also recorded: do not bind”.
As to `Cc1cc(=O)[nH]c(SCC(=O)c2cccc3ccccc23)n1` [compound 3], at persulfurated 3MST, the “ΔH (ITC)” value is -11.76 kcal/mol and the pKd is 6.30. Besides, the “Binding to non-persulfurated 3MST (ITC heat release)” value at non-persulfurated 3MST is reported as “no heat release; also recorded: do not bind”.
